Data published in patent publication US8729280B2, “Five crystal forms, methods of preparation, pharmaceutical compositions and applications of XLF-III-43” (Institute of Mataria Medica, Chinese Academy of Medical …, priority 2008, dated 2014).

How the values were obtained:
[1] = tested on: acute renal function injury in mice induced by Cisplatin; assay: Effects of different crystalline forms of XLF-III-43 on acute renal function injury in mice induced by Cisplatin (serum BUN and Scr); type: in vivo, Male Kunming mice; conditions: for BUN / BUN reduction (%) / Scr / Scr reduction (%): dose 25.0 × 3 mg/kg
Procedure: Objective: To observe the effects of different crystal forms of XLF-III-43 on acute renal function injury in mice induced by Cisplatin
Reagents: crystalline form I, II and V of XLF-III-43, all were prepared into suspensions with 0.5% sodium carboxymethylcellulose. Positive control: Losartan potassium, ATIRA Hangzhou Merck Sharp & Dohme Pharmaceutics Company, lot number: S1241. Crude drug of Cisplatin (DDP): Supplied by Shandong Qilu Pharmaceutics Company.
Animal: Male Kunming mice weighing 16 to 22 g were purchased from Institute of Laboratory Animal Sciences, Chinese Academy of Medical Sciences (Type II, Certificate No: SCXK-Jing 2000-0006). All the mice were feeded in standard breeding boxes, 5 per box, kept these boxes dry and clean, ventilate and sterilize animal room at fixed time, lightening time: 8:00-20:00, room temperature: 20-26° C., humidity: 40-70%, forage: clean breeding forage, bought from Animal Center of Academy of Military Medical Sciences, Certificate No: SCXX-(army) 2002-001.
Serum biochemistry kit: Beijing Beihua Refined Chemical Limited-liability Company
Apparatus: WELLSCAN MK3 Scanner, Germent SIGMA3K 15 Centrifuge, TGL-16G Freezing Centrifuge, Shanghai Anting Scientific Instrument Factory, Votex, American Bohemia N.Y Company.
Animal grouping: According to body weights, male Kunming mice weighing 18 to 22 grams were randomly divided into […] groups: control group, Cisplatin group (model group), Losartan potassium group, groups of three crystal forms of XLF-III-43, n=8 for each group.
Modeling and administrating: XLF-III-43 were dissolved in 0.5% sodium carboxymethylcellulose, Losartan potassium and Cisplatin were dissolved in physiological saline. Since two days before giving Cisplatin by peritoneal injection, Losartan potassium group and groups of three crystal forms of XLF-III-43 were intraperitoneally administered respectively. Control animals received an equal volume of physiological saline.
Serum parameters detecting: Blood samples were collected from the orbital venous plexus at day 3, 5, and 7 after injecting Cisplatin. Serum BUN and Scr were detected by serum biochemistry kit.

[2] = Influences of different crystalline forms on blood drug levels in rats (pharmacokinetic study, HPLC of plasma); type: in vivo
Procedure: 1. Crystal Samples: crystalline form II and V of XLF-III-43, dispersant agent of crystalline form II (obtained by comminuting crystalline form II and V of XLF-III-43).
2. Methodology study of detecting blood drug level
(1) Experimental Conditions:
HPLC: waters 2690 chromatography system, 2487 UV detector, Milnicousamidem 32 chromatography management system. Column: 4.6×250 mm Spherisorb C18 5 μm; flow rate: 1.0 ml/min; column temperature: 25° C.; detection wavelength: 330 nm. After treated by solid phase extraction, plasma samples were directly injected and analyzed.
(4) Recovery experiment: extraction recoveries (greater than 75%) meet the requests that SFDA issued on methods of pharmacokinetic study.
(5) Sensitivity: minimum detectable amount was 2 ng/ml, the minimum limit of quantification was 5 ng/ml.

[3] = 3 days after injecting Cisplatin
[4] = 5 days after injecting Cisplatin
[5] = 7 days after injecting Cisplatin
[6] = one-time orally administered at 30 mg/kg, preliminary pharmacokinetic

CCCCc1nc(Cl)c(CO)n1Cc1ccc(-c2ccccc2-c2nn[nH]n2)cc1 [Losartan]
BUN [1, 3]: 30.58 ± 4.19 mg/dL | BUN reduction (%) [1, 3]: −1.9% | Scr [1, 3]: 1.41 ± 1.00 mg/dL | Scr reduction (%) [1, 3]: 22.4% | BUN [1, 4]: 31.75 ± 9.32 mg/dL | BUN reduction (%) [1, 4]: 24.6% | Scr [1, 4]: 1.16 ± 0.48 mg/dL | Scr reduction (%) [1, 4]: 39.3% | BUN [1, 5]: 30.32 ± 2.89 mg/dL | BUN reduction (%) [1, 5]: 23.8% | Scr [1, 5]: 1.74 ± 0.31 mg/dL | Scr reduction (%) [1, 5]: 34.7%

3-(3′-carboxy-4′-hydroxy-anilino-carbo-)-6-nitro-7-hydroxy-8-methyl-coumarin [crystalline form V of XLF-III-43]
blood/plasma concentration ([2]; oral, FIG. 22, within a certain period of time): higher blood concentration than crystalline form II of XLF-III-43 | dose-effect relationship of renal function protective effect ([1]; Cisplatin model): good dose-effect relationship | renal function protective effect (serum Scr and BUN) ([1]; Cisplatin model, compared among treated groups (crystalline form I, II, V, Losartan potassium)): best renal function protective effect

3-(3′-carboxy-4′-hydroxy-anilino-carbo-)-6-nitro-7-hydroxy-8-methyl-coumarin [XLF-III-43]
time within which it could be detected in plasma ([2]; one-time orally administered at 30 mg/kg): ≤ 36 h | detection in plasma at 48 h ([2]; one-time orally administered at 30 mg/kg, 48 h): could not be detected | maximum plasma concentration Cmax [2, 6]: 2000 ng/mL | peak time (Tmax) [2, 6]: 30 min
